From publication PMC11672316, “Identification of ANXA1 as a Novel Upstream Negative Regulator of Notch1 Function in AML” (Advanced Science, 2024)
Ends that are not written are not given here. Peptide text beside a SMILES is read from it. * marks the point of attachment. Cbz = O=C(OCc1ccccc1)*

What was measured:
Type in all cases: cell-based, human
[1] = system: NICD; experiment: Co-immunoprecipitation, NICD-bound ubiquitin; conditions: KG1a- and HL60- shANXA1 or shControl cells; MG132 0 or 6 h; Figure 3C
Procedure: For co-immunoprecipitation (Co-IP) assay, the cells were lysed with NP-40 lysis buffer (Beyotime) containing 1 mM PMSF for 30 min at 4°C. The total protein concentrations were measured using BCA protein assay kit (Solarbio) according to the instructions. The lysates were divided into several tubes and precleared by adding protein A/G-agarose (Santa Cruz) for 30 min at 4°C. The samples were centrifuged to remove the precipitation and incubated with Notch1 antibody or normal rabbit IgG (Table S6, Supporting Information) for 2 hours, and then incubated with protein A/G-agarose overnight. The complexes were washed with NP-40 lysis buffer four times before being eluted in SDS-gel loading buffer and detected by western blotting.

[2] = system: NICD; experiment: Western blotting of NICD after MG132 treatment; conditions: AML cells (KG1a and HL60)
Procedure: (§1) Cells were lysed in a lysis buffer containing 0.5 mM EDTA, 20 mM HEPES and 2% SDS. Samples mixed with SDS-gel loading buffer were loaded onto SDS-PAGE gel and transferred onto polyvinylidene fluoride (PVDF) microporous membranes (Millipore). Membranes were blocked with 5% nonfat milk in TBST (20 mM Tris-HCl, 150 mM NaCl, 0.1% Tween-20 with pH 7.5) for 2 hours and incubated with primary antibodies (Table S6, Supporting Information) at 4°C overnight. The membranes were incubated with a secondary antibody (Table S6, Supporting Information) followed by detection in an imaging system (ChampChemi 910, SageCreation) using the ECL reagent solution (SageCreation).

[3] = system: p15; experiment: Western blotting of p15 after RO4929097 treatment; conditions: 24 h, Figure 4D
Procedure: as §1

[4] = system: KG1a-shANXA1 cells; experiment: Cell counting proliferation assay, KG1a-shANXA1; conditions: 24 h, Figure 4E, three independent experiments
Procedure: (§2) For the cell counting assay, transfected cell lines or parental cells were seeded in a cell culture plate at the same density and cultured with RPMI-1640 medium, which sometimes added drugs. The number of cells was counted by a cell counter (Countstar BioTech IC 1000, Countstar) after indicated time.

[5] = system: HL60-shANXA1 cells; experiment: Cell counting proliferation assay, HL60-shANXA1; conditions: 24 h, Figure 4E, three independent experiments
Procedure: as §2

[6] = system: KG1a cells; experiment: MTT assay, KG1a (FPR blocking or activation); conditions: Figure S14, three independent experiments
Procedure: (§3) For Methylthiazolyldiphenyl-tetrazolium bromide (MTT) assay, cells were seeded in a 96-well plate and incubated with drugs or peptides. At the indicated time point, each well was added with 10 μL MTT solution (5 mg mL^-1, Sigma-Aldrich) and then incubated at 37°C in 5% CO2 for 4 hours. The medium was replaced by DMSO with 150 μL to dissolve the formazan crystals.

[7] = system: HL60 cells; experiment: MTT assay, HL60 (FPR blocking or activation); conditions: Figure S14, three independent experiments
Procedure: as §3

CC(C)C[C@@H](C=O)NC(=O)[C@H](CC(C)C)NC(=O)[C@H](CC(C)C)NC(=O)OCc1ccccc1 [MG132] (Cbz-Leu-Leu-Leu-aldehyde)
ubiquitin bound to NICD [1]: ubiquitin was bound to NICD significantly in the shControl cells after MG132 treatment rather than ANXA1 knockdown cells
NICD expression level ([2]; ANXA1 knockdown group): minimally affected the expression level of NICD in the ANXA1 knockdown group
NICD degradation ([2]; shControl, 3 h): significantly reversed the ANXA1‐induced NICD degradation after 3 h of treatment in the control group

CC(C)(C(=O)NCC(F)(F)C(F)(F)F)C(=O)N[C@@H]1C(=O)Nc2ccccc2-c2ccccc21 [RO4929097]
p15 expression ([3]; HL60 with ANXA1 knockdown): inhibited the expression of p15 in KG1a and HL60 cells with ANXA1 knockdown
p15 expression ([3]; KG1a with ANXA1 knockdown): inhibited the expression of p15 in KG1a and HL60 cells with ANXA1 knockdown
cell proliferation [4]: promoting the proliferation of AML cells
cell proliferation [5]: promoting the proliferation of AML cells

Ac2-26: N-terminal ANXA1 peptide, FPR agonist (Ac-AMVSEFLKQAWFIENEEQEYVQTVK; UniProt P04083 2-26, looked up, fragment)
effect on proliferation [6]: neither the FPR antagonist nor the N‐terminal ANXA1 peptide Ac2‐26 affected the proliferation of AML cells
effect on proliferation [7]: neither the FPR antagonist nor the N‐terminal ANXA1 peptide Ac2‐26 affected the proliferation of AML cells
